Reference: PMC8785688 (Bioorganic & medicinal chemistry, 2021)

What was measured:
h15-LOX-2 [1] = target: T1, h15-LOX-2 (Homo sapiens, UniProt O15296); test: Lipoxygenase UV-Vis-based IC50 assay, h15-LOX-2; format: biochemical
T1 sequence (O15296 1-676): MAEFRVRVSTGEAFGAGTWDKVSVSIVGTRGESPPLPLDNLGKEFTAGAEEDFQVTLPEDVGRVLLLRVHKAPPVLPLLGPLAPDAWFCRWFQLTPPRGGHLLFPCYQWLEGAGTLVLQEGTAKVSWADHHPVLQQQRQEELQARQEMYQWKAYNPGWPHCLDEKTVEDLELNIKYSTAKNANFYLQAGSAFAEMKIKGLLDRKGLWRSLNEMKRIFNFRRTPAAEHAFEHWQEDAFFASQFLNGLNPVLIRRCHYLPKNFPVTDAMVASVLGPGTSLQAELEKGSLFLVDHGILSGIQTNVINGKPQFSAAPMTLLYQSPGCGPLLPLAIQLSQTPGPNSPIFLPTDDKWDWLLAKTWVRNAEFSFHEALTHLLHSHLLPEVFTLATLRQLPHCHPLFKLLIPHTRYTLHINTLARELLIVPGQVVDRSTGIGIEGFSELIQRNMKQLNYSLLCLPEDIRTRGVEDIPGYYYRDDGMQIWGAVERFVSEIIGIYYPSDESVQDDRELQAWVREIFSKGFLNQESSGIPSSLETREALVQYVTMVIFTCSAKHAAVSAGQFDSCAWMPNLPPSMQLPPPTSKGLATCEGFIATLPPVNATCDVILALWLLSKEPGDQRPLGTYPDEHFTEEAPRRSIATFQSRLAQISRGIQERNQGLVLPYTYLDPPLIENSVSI

h15-LOX-2 [2] = target: T1, h15-LOX-2; test: Steady-state inhibition kinetics of h15-LOX-2; format: biochemical; conditions: for mode of inhibition: against h15-LOX-2
h15-LOX-2 [3] = target: T1, h15-LOX-2; test: Study of inhibitors as substrates of h15-LOX-2; format: biochemical; conditions: 20 μM inhibitor, absence of AA; UV-Vis and RP-HPLC
h15-LOX-2 [4] = target: T1, h15-LOX-2; test: Hydrogen/deuterium exchange mass spectrometry of h15-LOX-2; conditions: 20 μM inhibitor; peptides 173-184 and 184-191 (helix α2); short time scales (< 10 min)
SEC = target: the molecule itself; test: SEC

Fc1ccc(CSc2nccn2-c2ccccc2)cc1 [analog 2, 2-((4-fluorobenzyl)thio)-1-phenyl-1H-imidazole]
IC50 (h15-LOX-2 [1]): > 100000 nM

FC(F)(F)c1ccc(CSc2nccn2-c2ccccc2)cc1 [Inhibitor 327069]
Ki (h15-LOX-2 [2]): 1200 nM
mode of inhibition (h15-LOX-2 [2]): mixed-type
substrate activity with h15-LOX-2 (h15-LOX-2 [3]): not substrates
enhanced inhibition of 327069 over 536924 (h15-LOX-2 [1]; ratio of IC50 values): ~10 fold
change in H/D exchange vs h15-LOX-2 alone (h15-LOX-2 [4]): ≤ 20%

CCc1ccc(CSc2nccn2-c2ccccc2)cc1 [Inhibitor 327206]
mode of inhibition (h15-LOX-2 [2]): mixed-type
substrate activity with h15-LOX-2 (h15-LOX-2 [3]): not substrates

B1: loop mutant (LM) of human epithelial 15-lipoxygenase-2, Mn2+-substituted (enzyme, UniProt O15296 1-676, looked up)
chain: MAEFRVRVSTGEAFGAGTWDKVSVSIVGTRGESPPLPLDNLGKEFTAGAEEDFQVTLPEDVGRVLLLRVHKAGPLAPDAWFCRWFQLTPPRGGHLLFPCYQWLEGAGTLVLQEGTAKVSWADHHPVLQQQRQEELQARQEMYQWKAYNPGWPHCLDEKTVEDLELNIKYSTAKNANFYLQAGSAFAEMKIKGLLDRKGLWRSLNEMKRIFNFRRTPAAEHAFEHWQEDAFFASQFLNGLNPVLIRRCHYLPKNFPVTDAMVASVLGPGTSLQAELEKGSLFLVDHGILSGIQTNVINGKPQFSAAPMTLLYQSPGCGPLLPLAIQLSQTPGPNSPIFLPTDDKWDWLLAKTWVRNAEFSFHEALTHLLHSHLLPEVFTLATLRQLPHCHPLFKLLIPHTRYTLHINTLARELLIVPGQVVDRSTGIGIEGFSELIQRNMKQLNYSLLCLPEDIRTRGVEDIPGYYYRDDGMQIWGAVERFVSEIIGIYYPSDESVQDDRELQAWVREIFSKGFLNQESSGIPSSLETREALVQYVTMVIFTCSAKHAAVSAGQFDSCAWMPNLPPSMQLPPPTSKGLATCEGFIATLPPVNATCDVILALWLLSKEPGDQRPLGTYPDEHFTEEAPRRSIATFQSRLAQISRGIQERNQGLVLPYTYLDPPLIENSVSI
stoichiometry N (SEC): 2
